Assay results taken from ChEMBL document CHEMBL3507680, “University of Dundee, Gates Library screen for HepG2 cell viability”.

Experiment: Human HepG2 cell viability assay in 384 well format
Assay type: toxicity, cell-based
Design: dose 125 nL, time 70.5 hour; concentration not given beside the values
Conditions: HepG2 cells, read-out: Inhibition

Structure (SMILES) | cytotoxicity at 70.5 h [%]
Cc1ccccc1C(N)c1ccncc1 (stereo unspecified) | -3.67
c1cnc(CC2COCCN(C3CCCCC3)C2)cn1 (stereo unspecified) | 1.48
CN(C)C(=O)c1cn[nH]c1C1CCCN1Cc1c[nH]cn1 (stereo unspecified) | 0.232
Cc1cn[nH]c1C1COCCN1C(=O)c1cc(F)ccc1F (stereo unspecified) | 5.9
Cc1nc2c(c(=O)[nH]1)CCN(Cc1ccc3c(c1)CCCN3C)C2 | 0.602
Cc1nc(=O)c2ccccc2n1C1=CCN(CC(=O)N2CCCC2)CC1 | -1.43
CNC(=O)CCc1cccc(C2CCCN(c3cc(C)ncn3)C2)n1 (stereo unspecified) | -2.33
CN(C)C(=O)c1cn[nH]c1C1CCCN1Cc1cncn1C (stereo unspecified) | -0.0963
CC(C)C(=O)N1CCCC(Cc2cccnc2)C1 (stereo unspecified) | -0.448
CCS(=O)(=O)N1CCC(c2nn(CCN(C)C)c3ncccc23)C1 (stereo unspecified) | -1.3
Cc1nc(CN(C)C(=O)CN(C)C)nc2c1CCC(=O)N2CCC(C)C | -0.759
Cc1nc(NC2CCN(S(=O)(=O)c3ccccc3)CC2)[nH]c(=O)c1C | -9.46
Cc1cc(C)n(CCNCc2cc(-c3ccccc3)c[nH]c2=O)n1 | -9.26
O[C@@H]1C[C@H]2CN(CC3CCCCC3)[C@H](Cc3ccccc3)CN2C1 | 24.4
Cc1nn(C)cc1CN1CCc2nc3sccc3c(=O)n2CC1 | -9.47
CCn1cncc1CN1CCc2nc3sccc3c(=O)n2CC1 | -5.29
Cc1ccc(-c2nc(C3CCN(C(=O)c4ccn(C)n4)CC3)no2)cn1 | -10.5
CCC(=O)N1CCC(c2nc(N3CCCCC3)ncc2S(C)(=O)=O)CC1 | -2.83
CCN(CC)C(=O)CN1CCC2(C=Cc3cc(Cl)c(C)cc3O2)CC1 | 7.43
CS(=O)(=O)c1cnc(N2CCCC2)nc1C1CCN(C(=O)C2CC2)CC1 | 0.997
COc1ccc(C(C)N(C)Cc2c(C(C)C)[nH]c3ncccc23)cc1 (stereo unspecified) | 20.8
O=C(NCCCO)C1(CC2CC(c3ccc(F)cc3)=NO2)CCOCC1 (stereo unspecified) | -5.38
CCc1ncc(CN2C[C@@H]3C[C@@H](O)CN3C[C@@H]2Cc2ccccc2)cn1 | -5.41

Structure (SMILES) | cytotoxicity at 70.5 h [%]
Cc1cc(Nc2cnccn2)cc(C2CCCNC2)n1 (stereo unspecified) | -2.88
Cc1cc(N(C)C)nc(C2COCCN2Cc2cscn2)n1 (stereo unspecified) | 18
Cc1cc(NC2CC3(CCN(Cc4ncccc4F)C3)C2)ncn1 (stereo unspecified) | -3.79
Cc1ocnc1C(=O)N(C)[C@@H]1CC[C@@H](Oc2ccccc2)[C@@H]1O | -5.13
Cc1nn(C)cc1S(=O)(=O)N[C@@H]1CCC[C@@H](N2CCCC2)[C@@H]1O | -9.32
Cc1nn(C)cc1S(=O)(=O)N[C@@H]1CC[C@@H](n2ccnc2C)[C@@H]1O | 17.7
Cc1nccn1[C@@H]1CC[C@@H](NC(=O)CCOc2ccccc2)[C@H]1O | 16.9
CN(C)CCn1nc(C2CCN(Cc3ccccc3)C2)c2cccnc21 (stereo unspecified) | 31.8
COCC(=O)N1CCCCC1c1nc(CN(C)C(C)=O)cc(N(C)C)n1 (stereo unspecified) | 50.7
Nc1ncc(-c2ccc(C(F)(F)F)cc2)c(C2CCCNC2)n1 (stereo unspecified) | 0.61
CN1CCN([C@@H]2CN(C(=O)c3cc4ccc(F)cc4[nH]3)C[C@H]2O)CC1 | -3.6
CCC(=O)N1CCCCC1c1nc(CN(C)C(C)=O)cc(N(C)C)n1 (stereo unspecified) | -1.37
CN(C)[C@@H]1CN(C(=O)c2cc3cccc(F)c3[nH]2)C[C@H]1O | -2.67
Cc1ncc(CNC(=O)Cc2cccs2)c(C2CCCN2C)n1 (stereo unspecified) | -4.94
Cc1ncc(CNC(=O)CCc2c(C)noc2C)c(C2CCCN2C)n1 (stereo unspecified) | -3.48
O=C(Cc1cccs1)N1CCCCC1c1ccn2ccnc2n1 (stereo unspecified) | -5.26
Cc1ncc(CNC(=O)Cc2ccsc2)c(C2CCCN2C)n1 (stereo unspecified) | -5.12
Cc1ccccc1CN1CCOC(c2nccc(CN(C)C)n2)C1 (stereo unspecified) | -8.08
CN(C)Cc1ccnc(C2CN(CCCc3ccccc3)CCO2)n1 (stereo unspecified) | -6.75
CN(C)CC(=O)N1CCCC1c1cncc(Oc2ccc(F)cc2)n1 (stereo unspecified) | 11.5
Cc1noc(C)c1-c1cccc(CC2CCN(C(=O)CN)C2)n1 (stereo unspecified) | -4.83
Cc1cccc(Nc2nccnc2C2CCCN(CC(=O)N(C)C)C2)n1 (stereo unspecified) | -7.55
Nc1nc(C2CCN(C(=O)c3cnco3)CC2)cs1 | -5.18

Structure (SMILES) | cytotoxicity at 70.5 h [%]
CC(=O)N1CCC(c2nccnc2Nc2ncc(C)s2)CC1 | -10.6
NC(=O)C1(c2cnccn2)CCCN1Cc1ccc(Cl)c(F)c1 (stereo unspecified) | -5.01
COCCC(=O)N1CCC(c2cncc(Oc3cccnc3)n2)CC1 | -0.961
CC(C)(N)C(=O)N1CCCC1c1cncc(Oc2ccccc2)n1 (stereo unspecified) | 2.03
Cn1ccnc1CN1CCOC(C)(C(=O)N2CCOCC2)C1 (stereo unspecified) | 1.29
Cc1cccc(CN2CCOC(C)(C(=O)N3CCOCC3)C2)n1 (stereo unspecified) | 11
CC(=O)Nc1nc(C2CCN(C(=O)c3ccncc3)CC2)cs1 | 24.9
CC1(C(=O)N2CCOCC2)CN(Cc2c[nH]cn2)CCO1 (stereo unspecified) | -0.532
Cc1cc(CN2CCN(S(C)(=O)=O)CC(C(=O)N(C)C)C2)no1 (stereo unspecified) | 0.351
CC(=O)N1CCN(c2ccnc(C)n2)CC(COc2ccccc2)C1 (stereo unspecified) | -3.78
NC(=O)C1CN(C(=O)Cc2cccnc2)CCN(C2CCOCC2)C1 (stereo unspecified) | 0.12
Oc1nc(N2CCOCC2)nc2c1CCN(Cc1ccccc1)CC2 | -1.05
CC(=O)Nc1nc(C2CCN(C(C)C)CC2)cs1 | -1.18
CC(C)C(=O)N1CCCC(c2cncc(Oc3cccnc3)n2)C1 (stereo unspecified) | -2.17
O=C(Cc1ccsc1)N1CCOC(c2nc(-c3ncccn3)no2)C1 (stereo unspecified) | -2.86
Cc1n[nH]c(C)c1-c1nccnc1CC1CCN(C(C)C)CC1 | 13.4
Cc1cc(CCC(=O)N2CCCC2)nc(C2CCCN2)n1 (stereo unspecified) | -1.61
CNC(=O)C1(c2cnccn2)CCCN1C(=O)c1ccc(OC)cc1 (stereo unspecified) | 18.7
CNC(=O)C1(c2cnccn2)CCCN1C(=O)c1ccc(F)cc1 (stereo unspecified) | 22.8
COc1ccc(Oc2nccnc2C2CCN(C(C)=O)CC2)cc1 | -4.84
CN1CCCCC[C@@H]2[C@@H]1[C@H](c1ccccc1)CN2C(=O)c1cccnc1 | 3.63
CN1CC(c2cc(O)nc(NCc3ccc(Cl)cc3)n2)CC1=O (stereo unspecified) | -5.19
CC(=O)N1CCC(c2nccnc2-c2ccc(F)cc2)CC1 | -0.029

Structure (SMILES) | cytotoxicity at 70.5 h [%]
COCCC(=O)N1CCC(c2cc(O)n(C)n2)C1 (stereo unspecified) | 1.63
CC(=O)N1CCC(c2nccnc2-c2ccc(F)c(F)c2)CC1 | -0.906
Nc1nc2nc(C3CCCN(C(=O)c4cnccn4)C3)ccc2s1 (stereo unspecified) | -3.81
CNC(=O)c1ccc(C2CN(C(=O)c3scnc3C)CCO2)nc1 (stereo unspecified) | -3.13
Cc1cccnc1C(=O)N1CCC(Cc2cnc3[nH]ccc3c2)CC1 | 21.2
CNC(=O)C1(c2cnccn2)CCCN1C(=O)c1ncccc1C (stereo unspecified) | -5.43
O=S(=O)(N1CCCCC1)N1CCC(Oc2cnccn2)CC1 | -2.24
O=C(N[C@@H]1CC[C@@H](n2ccnc2)[C@@H]1O)c1cc2c(s1)CCC2 | 1.51
COc1ccc(CN(C)[C@@H]2CN(C(=O)c3ccnn3C)C[C@H]2O)cc1 | -3.38
CS(=O)(=O)N1CCN(Cc2cccs2)CC(C(N)=O)C1 (stereo unspecified) | -2.16
COc1ccc(CN(C)[C@@H]2CN(C(=O)c3cncs3)C[C@H]2O)cc1 | 0.0164
COCCN(C(=O)c1ccccn1)c1nc2c(s1)CCc1c-2cnn1C | 14.7
CN(C)S(=O)(=O)N1CCN(Cc2ccnc(N3CCCC3)n2)CC1 | -1.31
Cn1nc(C2CN(C(=O)c3cccnc3)C2)c2nccnc21 | -3.75
Cn1ccc(C(=O)N2CCCC(c3cc(O)n(C)n3)C2)n1 (stereo unspecified) | 28
COCCN1CCC(c2cncc(-c3ccccc3C)n2)CC1 | -4.28
Cc1ccccc1-c1cncc(C2CCN(Cc3cnn(C)c3)CC2)n1 | -9.46
Cc1cc(C2CCCN(C(=O)c3cccnc3)C2)ccn1 (stereo unspecified) | -11.1
CN1CCCC[C@@H]2[C@H]1[C@@H](c1ccccc1)CCN2C(=O)c1cccnc1 | -7.01
CN(C)CC(=O)N1CC(c2nn(C)c3nccnc23)C1 | -6.77
Cc1cc(C)nc(Nc2cccc(C3CCCN(CC4CC4)C3)n2)n1 (stereo unspecified) | -5.69
CCc1c(C)nc(C2CCCN2C(=O)c2cc(C)no2)nc1O (stereo unspecified) | 10.5
CCc1c(C)nc2cc(C3CCN(CCc4ccccc4)C3)nn2c1O (stereo unspecified) | -0.223

Structure (SMILES) | cytotoxicity at 70.5 h [%]
NC(=O)C1CCCN(S(=O)(=O)c2cnn(-c3ccccc3)c2)C1 (stereo unspecified) | -1.76
CC(C)CCN(C)Cn1ncc2cn(-c3ccccc3)nc2c1=O | 14.5
CCCn1cc(C(=O)NCCS(N)(=O)=O)c2ccccc21 | 15.9
COc1ccc(Cl)cc1NCC(=O)N(Cc1cccnc1)C1CC1 | -7.28
c1cc(NCc2ccncc2)nc(C2CCCNC2)c1 (stereo unspecified) | -1.2
CC(C)N(C(=O)Cn1c(-c2ccco2)cc2cccnc21)C(C)C | -15.1
O=C(Cn1c(-c2ccco2)cc2cccnc21)N1CCCC1 | -8.97
Cc1csc(C(Cc2ccsc2)NC(=O)CN(C)Cc2ccccn2)n1 (stereo unspecified) | -5
CN(CC(=O)NC(Cc1ccsc1)c1cccnc1)Cc1cccnc1 (stereo unspecified) | 19.4
CN(C)c1ncc(-c2ccc(C(N)=O)cc2)c(C2CCNC2)n1 (stereo unspecified) | -2.25
Cn1nc(C2CCN(C(=O)CN3CCCCC3)CC2)c2cccnc21 | -4.57
Cc1n[nH]cc1CNCC1(c2ccc3c(c2)OCO3)CCOCC1 | -5.66
Cc1n[nH]cc1CNCC1(c2cccc(F)c2)CCOCC1 | -5.63
Cc1cc(CCC(=O)N(C)C)nc(C2CCCCN2)n1 (stereo unspecified) | -5.77
COc1cccc(CN(Cc2ncc[nH]2)Cc2ccco2)c1 | -2.53
COc1ccc(OC)c(CN(Cc2ccco2)Cc2[nH]cnc2C)c1 | -10.2
O[C@@]1(c2ccccn2)CC[C@H]2CN(Cc3ccccn3)C[C@H]21 | -0.173
Cc1c[nH]nc1C1CCCN1Cc1nccn1C (stereo unspecified) | -4.65
c1cc2nccc(CC3CCCN(C4CCOCC4)CC3)c2cn1 (stereo unspecified) | -1.46
